Like-named read-outs stand apart in the source and are kept apart here.
System: Adjuvant-Induced Arthritis
Test: Adjuvant-induced arthritis in the rat (Mycobacterium butyricum, subplantar; inhibition of hindpaw edema, primary and secondary lesions)
Type: in vivo, rat (adult male Wistar-Lewis)
Conditions: for % Inhibition of Lesions, Secondary (mean ± SE): contralateral non-injected paw, day 16; for % Inhibition of Lesions, Primary (mean ± SE): injected paw, day 4; for ED50: Rattus norvegicus
Description: Adjuvant arthritis was induced in adult male Wistar-Lewis rats weighing 250-270 grams each (Charles River Breeding Laboratories, Kingston, N.Y.) by a single subplantar injection of 1 mg of Mycobacterium butyricum (Difco Laboratories, Lot #0640-33) suspended in 0.1 ml mineral oil as described by Walz et al. (Proc. Soc. Exptl. Biol. Med., 136: 907-910, 1971). Seven rats were used in each group. Orally administered drugs were dissolved in water and dilute sodium hydroxide was added as necessary to ensure solution; control groups received only water. After neutralization of the solutions to pH 7.0, a volume of 10 ml/kg body weight was given by intubation with a blunt end, 18-gauge needle. Doses of each drug were given daily starting 1 day before the injection of adjuvant and continuing until 16 days after the induction of the arthritic lesion.
The initial hindpaw volumes (Vi) were measured on the day of adjuvant injection and the resultant swelling was determined on the injected paw (Vf - Vi) on the 4th day following the adjuvant injection. This was considered to be the primary response or lesion. The swelling (Vf - Vi) measured 16 days after adjuvant injection on the contralateral, non-injected hindpaw constituted the secondary response or lesion. The rats were weighed at the start of the experiments as well as 4 and 16 days after the induction of the disease. Percent inhibition of edema was calculated according to the following formula: [formula]

SMILES	effect on the course of adjuvant arthritis in rats (in words) (compound alone)	% Inhibition of Lesions, Secondary (mean ± SE) (oral 1.0 mg/kg daily)	% Inhibition of Lesions, Primary (mean ± SE) (oral 1.0 mg/kg daily)	% Inhibition of Lesions, Secondary (mean ± SE) (oral 3.3 mg/kg daily)	% Inhibition of Lesions, Primary (mean ± SE) (oral 3.3 mg/kg daily)	% Inhibition of Lesions, Secondary (mean ± SE) (oral 10.0 mg/kg daily)	% Inhibition of Lesions, Primary (mean ± SE) (oral 10.0 mg/kg daily)	ED50 (in words) (oral, linear regression of Table I data, secondary lesions)	activity against primary lesions (in words) (oral, primary lesions)	activity against secondary lesions (in words) (oral, secondary lesions)	ED50 (oral, linear regression of Table I data, primary lesions, read-out: ED50 against primary lesions)	ED50 (oral, linear regression of Table I data, secondary lesions, read-out: ED50 against secondary lesions)	% Inhibition of Lesions, Secondary (mean ± SE) (oral 0.10 mg/kg daily)	% Inhibition of Lesions, Primary (mean ± SE) (oral 0.10 mg/kg daily)	% Inhibition of Lesions, Secondary (mean ± SE) (oral 0.33 mg/kg daily)	% Inhibition of Lesions, Primary (mean ± SE) (oral 0.33 mg/kg daily)
Cc1nc(-c2csc(NC(=N)N)n2)c[nH]1.Cl.Cl [Compound A, 2-Guanidino-4-(2-methyl-4-imidazolyl)thiazole Dihydrochloride]	beneficial effect	3 (3) %	0 (6) %	28 (4) %	0 (3) %	27 (3) %	2 (2) %	no reliable ED50 could be extrapolated	no significant activity	significant activity	–	–	–	–	–	–
CN1C(C(=O)Nc2ccccn2)=C(O)c2ccccc2S1(=O)=O [Piroxicam, reference compound]	–	64 (3) %	45 (7) %	–	–	–	–	–	–	–	2.6 mg/kg	0.45 mg/kg	26 (2) %	29 (4) %	43 (4) %	33 (8) %
